From patent US20200345733A1, “Microbicidal Pyrimidine or Triazine Containing Compounds” (Janssen Sciences Ireland UC, priority 2002, published 2020) come the findings set out here.

This assay concerns HIV Ba-L. Put plainly: Prevention of HIV Ba-L infection in MO-DC/CD4(+) T cell co-cultures (ELISA, secondary culture, PCR). As to conditions: for HIV Antigen (number of positive wells) 2° Cult. / HIV proviral DNA (2° Cult.) / HIV Antigen (number of positive wells) 1° Cult.: cell-associated HIV Ba-L; for HIV Antigen (number of positive wells) 2° Cult.: 2° culture without drug, out of 6; for HIV proviral DNA (2° Cult.): PCR after secondary culture; for HIV Antigen (number of positive wells) 1° Cult.: continuous drug, out of 6 microcultures; for EC50: Human immunodeficiency virus 1, BAL, T-cell, MO-DC/CD4(+) T cells, read-out: EC50 (inhibiting 50% of HIV Ba-L replication). The class given is cell-based. The protocol:
For experiments with CEM T cells, we used the lymphotropic SI/X4 HIV strain HTLV-IIIB, originally obtained from R. C. Gallo and M. Popovic (NIH, Bethesda, Md.). For experiments with monocyte-derived dendritic cells (MO-DC), the monotropic NSI/R5 HIV strain Ba-L, kindly provided by the NIH AIDS Research and Reference Reagent Program (Rockville, Md) was used. Ba-L stocks were grown and tittered on PHA/IL-2-stimulated peripheral blood mononuclear cells (PBMC) in complete medium, containing RPMI-1640 (Bio-Whittaker, Verviers, Belgium) and 10% bovine calf serum (Hyclone, Utah, US) (Peden K. Virological and Molecular Genetic Techniques for Studies of Established HIV Isolates. 1995, 21-45). The supernatant of these cultures were directly used as cell-free virus to infect MO-DC. To prepare cell-associated HIV Ba-L, non-stimulated PBMC (2×10^6 cells/ml) were incubated overnight with 10^−2 MOI (=multiplicity of infection) of HIV Ba-L in complete medium. Afterwards, cells were extensively washed, frozen in liquid nitrogen and thawed on the day of infection.
HIV antigen was detected using an in-house developed ELISA assay, of which the characteristics have been described (Beirnaert E, Willems B, Peeters M, Bouckaert A, Heyndrickx L, Zhong P et al. Design and Evaluation of an in-House HIV-1 (Group M and O), SIVmnd and SIVcpz Antigen Capture Assay. J Virol Methods 1998, 73: 65-70). The lower detection limit is about 200 pg/ml and the upper limit is about 25,000 pg/ml, as determined using a standard curve of Ba-L stock dilutions with known p24 content. The 50% Effective Concentration (EC50) was calculated by plotting HIV Ag concentration against drug concentration, followed by regression analysis on the linear part of the curve,
Cell-free HIV Ba-L was pre-incubated with a serial dilution of drug, ranging from 10,000 to 0.1 nM (final concentration), for 1 hour at 37° C. MO-DC were infected with drug-treated HIV at a multiplicity of infection (MOI) of 10^−3. After 2 hours (at 37° C.), MO-DC were washed (6×) and suspended at 4×10^5 cells/ml. 50 μl of MO-DC were dispensed in a 96-well cup, together with 50 μl of autologous CD4(+) T cells (2×10^6 cells/ml) and 100 μl of complete medium or 100 μl of drug (at the same concentration as for the pre-incubation). Half of the culture medium was refreshed twice weekly with complete medium, with or without drug. After 2 weeks of primary culture, supernatants were analysed by ELISA and cells were used for secondary cultures to check viral rescue. For experiments with cell-associated HIV, a similar set-up was used except that pre-incubated, cell-associated virus was washed before addition of MO-DC/CD4(+) T cells and remained present during the MO-DC/CD4(+) T cell co-culture.
To evaluate the effect of a 24-hours treatment, MO-DC and autologous CD4(+) T cells were suspended in complete medium at 4×10^4, resp. 2×10^5 cells/ml. Fifty μl of MO-DC and 50 μl of CD4(±) T cells were dispensed in a 96-well cup, together with 50 μl of cell-associated or cell-free virus (10^−3 MOI) and 50 μl of complete medium or 50 μl of a serial dilution of drug. After 24-hours (37° C., 5% CO2), cells were washed (3×) and incubated for 2 weeks. Half of the culture medium was refreshed twice weekly with complete medium (without drug). After 2 weeks of primary culture, supernatants were analysed by ELISA and cells were used for secondary cultures to check viral rescue.
PBMC were isolated from donor buffy coats and cultured for 2 days in complete medium supplemented with 5 ng/ml IL-2 (Immunosource, Zoersel, Belgium) and 0.5 μg/ml PHA (Murex, Dartford, England). After 2 weeks of primary culture, MO-DC/CD4(+) T cell co-cultures were washed (3×) and secondary cultures were set-up by adding 1×10^5 PHA/IL-2 activated PBMC per cup. Half of the culture medium was replaced every 3-4 days with IL-2 containing medium (without drug) and supernatants as well as cells were harvested after 2 additional weeks. Supernatants were tested for HIV-Ag in ELISA. […]
For orientation: An ELISA detects its analyte on a solid surface through an enzyme-linked reagent.

Where [1] appears, read: Continuous treatment, Cell-associated HIV.
The mark [2] stands for this setting: Continuous treatment, Cell-free HIV.

SMILES strings stand for the structures. Like-named read-outs stand apart in the source and are kept apart here. A value given as a limit tells only on which side of the number the result lay.

In the case of `Cc1cc(C)c(Nc2ccnc(Nc3ccc(C#N)cc3)n2)c(C)c1` [compound B, 4-[[4-[(2,4,6-trimethylphenyl)amino]-2-pyrimidinyl]amino]benzonitrile], the “HIV Antigen (number of positive wells) 2° Cult.” value (10 nM in 1° culture) came out at 3, the “HIV Antigen (number of positive wells) 2° Cult.” value (100 nM in 1° culture) came out at 0, the “HIV Antigen (number of positive wells) 2° Cult.” value (1,000 nM in 1° culture) came to 0 and the “HIV Antigen (number of positive wells) 2° Cult.” value (10,000 nM in 1° culture) is on record as 0. Besides, the “HIV proviral DNA (2° Cult.)” value is on record as 4.74 Log(number of DNA copies/10^6 cells) (10 nM), “Neg” (100 nM), “Neg” (1,000 nM) and “Neg” (10,000 nM). Besides, the “HIV Antigen (number of positive wells) 1° Cult.” value was found to be 0 (10 nM), 0 (100 nM), 0 (1,000 nM) and 0 (10,000 nM). The “Conc. that prevents replicative HIV infection (ELISA and PCR after 2° culture)” value is recorded as 1,000 nM (24 Hours treatment, Cell-associated HIV); 100 nM (24 Hours treatment, Cell-free HIV); 100 nM under setting [1]; 10 nM under setting [2]. Further, the EC50 (in general, the midpoint of the concentration-response curve) (24 h, 24 hours treatment, Cell-associated HIV) came to 63 nM; the EC50 (24 h, 24 hours treatment, Cell-free HIV) was found to be 42 nM; the EC50 under setting [1] was less than 1 nM; the EC50 under setting [2] is less than 0.1 nM. For the same compound, the “Concentration that blocked infection in the primary cultures” value (cell-associated virus, continuous treatment, primary culture only) came out at 10 nM.
